What all share (assay type): in vivo
Holding throughout (conditions): evaluated after 13 days

The test system of assay [1] is Solanum nigrum (SOLNI). Put plainly: Herbicidal glasshouse test, post-emergence, SOLNI.
Assay [2] deals with Alopecurus myosuroides (ALOMY). The assay is described as follows: Herbicidal glasshouse test, post-emergence, ALOMY.
For assay [3], the system named is Solanum nigrum (SOLNI). Put plainly: Herbicidal glasshouse test, pre-emergence, SOLNI. Put shortly: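 This pre-emergence glasshouse herbicide test used Solanum nigrum sown in standard soil. One day after sowing, pots were sprayed with the compound in acetone/water (50:50) with 0.5% Tween 20. They were then grown at 24/16° C., with 14 hours light and 65% humidity, and watered twice daily. Percentage damage was scored after 13 days on a five point scale, where 5=80-100% and 1=0-19%.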

The test system of assay [4] is Setaria faberi (SETFA). The assay is described as follows: Herbicidal glasshouse test, post-emergence, SETFA. The essentials:
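This post-emergence glasshouse herbicide test used potted Setaria faberi. Plants were cultivated for 8 days under controlled conditions (24/16° C. day/night, 14 hours light, 65% humidity) and then treated with an aqueous spray made from an acetone/water (50:50) solution containing 0.5% Tween 20. After 13 days of further growth with twice-daily watering, damage was rated on a five point scale (5=80-100%; 1=0-19%).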

Assay [5] deals with Ipomoea hederacea (IPOHE). Put plainly: Herbicidal glasshouse test, pre-emergence, IPOHE.
The test system of assay [6] is Amaranthus retoflexus (AMARE). The assay is described as follows: Herbicidal glasshouse test, pre-emergence, AMARE. Put shortly:
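This pre-emergence glasshouse herbicide test used Amaranthus retoflexus sown in standard soil. After one day of cultivation, an aqueous spray made from the technical ingredient in 50:50 acetone/water with 0.5% Tween 20 was applied. Pots stayed at 24/16° C., 14 hours light, 65% humidity, with twice-daily watering. Damage was rated on a five point scale (1=0-19% up to 5=80-100%).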

Assay [7] has as its system Ipomoea hederacea (IPOHE). The assay is described as follows: Herbicidal glasshouse test, post-emergence, IPOHE.
Assay [8] relates to Alopecurus myosuroides (ALOMY). Put plainly: Herbicidal glasshouse test, pre-emergence, ALOMY.
Assay [9] has as its system Echinochloa crus-galli (ECHCG). Put plainly: Herbicidal glasshouse test, post-emergence, ECHCG. Put shortly:
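In this post-emergence glasshouse test, barnyard grass (ECHCG) was cultivated for 8 days under controlled conditions (24/16° C. day/night, 14 hours light, 65% humidity). It was then sprayed with an aqueous solution of the technical compound in acetone / water (50:50) with 0.5% Tween 20. Plants were kept under the same conditions and watered twice daily. After 13 days, percentage damage was rated on a five point scale (5=80-100%; 1=0-19%).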

Assay [10] deals with Echinochloa crus-galli (ECHCG). Put plainly: Herbicidal glasshouse test, pre-emergence, ECHCG. The essentials: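 In this pre-emergence glasshouse test, ECHCG seeds sown in pots of standard soil were sprayed one day after sowing with the test material in acetone/water (50:50) containing 0.5% Tween 20. Plants were kept at 24/16° C., 14 hours light, 65% humidity, and watered twice daily. Percentage damage was rated after 13 days on a 1–5 scale.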

The test system of assay [11] is Setaria faberi (SETFA). Put plainly: Herbicidal glasshouse test, pre-emergence, SETFA.
The subject of assay [12] is Amaranthus retoflexus (AMARE). The assay is described as follows: Herbicidal glasshouse test, post-emergence, AMARE. Put shortly: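 This post-emergence glasshouse test used AMARE plants raised in standard soil for 8 days under controlled conditions (24/16° C. day/night, 14 hours light, 65% humidity). Foliage was sprayed with formulated compound in acetone/water (50:50) containing 0.5% Tween 20. Plants were then watered twice daily, and after 13 days percentage damage was rated on a five point scale.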

`COCCn1c(=O)c(C(=O)Nc2nnnn2C)nn(C)c1=O` [Compound 1.088]: the “POST Application SOLNI, percentage damage (five point scale)” value in assay [1] (applied at 1000 g/h) is reported as 5 (5=80-100%). Besides, in assay [2] (applied at 1000 g/h), the “POST Application ALOMY, percentage damage (five point scale)” value is 5 (5=80-100%). In addition, the “PRE Application SOLNI, percentage damage (five point scale)” value (from here on “PRE Application SOLNI, percentage damage”) in assay [3] (applied at 1000 g/h) is recorded as 5 (5=80-100%). In [4] (applied at 1000 g/h), the “POST Application SETFA, percentage damage (five point scale)” value was 5 (5=80-100%). Besides, the “PRE Application IPOHE, percentage damage (five point scale)” value (shortened to “PRE Application IPOHE, percentage damage”) in assay [5] (applied at 1000 g/h) was 5 (5=80-100%). The “PRE Application AMARE, percentage damage (five point scale)” value (“PRE Application AMARE, percentage damage” below) in assay [6] (applied at 1000 g/h) is on record as 5 (5=80-100%). In addition, the “POST Application IPOHE, percentage damage (five point scale)” value in assay [7] (applied at 1000 g/h) is on record as 5 (5=80-100%). In addition, in [8] (applied at 1000 g/h), the “PRE Application ALOMY, percentage damage (five point scale)” value (from here on “PRE Application ALOMY, percentage damage”) was 5 (5=80-100%). Besides, the “POST Application ECHCG, percentage damage (five point scale)” value in [9] (applied at 1000 g/h) was 5 (5=80-100%). Also, the “PRE Application ECHCG, percentage damage (five point scale)” value (shortened to “PRE Application ECHCG, percentage damage”) in assay [10] (applied at 1000 g/h) is given as 5 (5=80-100%). Besides, the “PRE Application SETFA, percentage damage (five point scale)” value (“PRE Application SETFA, percentage damage” below) in assay [11] (applied at 1000 g/h) was 5 (5=80-100%). Further, the “POST Application AMARE, percentage damage (five point scale)” value in assay [12] (applied at 1000 g/h) was 5 (5=80-100%).

In the case of `Cn1nnnc1NC(=O)c1nn(C)c(=O)n(Cc2c(F)cc(F)cc2F)c1=O` [Compound 1.056], the “POST Application SOLNI, percentage damage (five point scale)” value in assay [1] (applied at 1000 g/h) was 5 (5=80-100%). Moreover, the “POST Application ALOMY, percentage damage (five point scale)” value in assay [2] (applied at 1000 g/h) is on record as 5 (5=80-100%). Besides, in assay [3] (applied at 1000 g/h), the “PRE Application SOLNI, percentage damage” value is recorded as 5 (5=80-100%). Besides, the “POST Application SETFA, percentage damage (five point scale)” value in assay [4] (applied at 1000 g/h) is 4 (4=60-79%). In addition, the “PRE Application IPOHE, percentage damage” value in [5] (applied at 1000 g/h) is 5 (5=80-100%). Also, the “PRE Application AMARE, percentage damage” value in assay [6] (applied at 1000 g/h) is 5 (5=80-100%). The “POST Application IPOHE, percentage damage (five point scale)” value in assay [7] (applied at 1000 g/h) is recorded as 5 (5=80-100%). The “PRE Application ALOMY, percentage damage” value in assay [8] (applied at 1000 g/h) is 5 (5=80-100%). Moreover, the “POST Application ECHCG, percentage damage (five point scale)” value in assay [9] (applied at 1000 g/h) is 4 (4=60-79%). Also, the “PRE Application ECHCG, percentage damage” value in [10] (applied at 1000 g/h) is recorded as 5 (5=80-100%). For the same compound, the “PRE Application SETFA, percentage damage” value in assay [11] (applied at 1000 g/h) is listed as 1 (1=0-19%). Moreover, the “POST Application AMARE, percentage damage (five point scale)” value in [12] (applied at 1000 g/h) was 5 (5=80-100%).

With `C=C(C)Cn1c(=O)c(C(=O)Nc2nnnn2C)nn(C)c1=O` [Compound 1.091], in assay [1] (applied at 250 g/ha), the “POST Application SOLNI, percentage damage (five point scale)” value was 5 (5=80-100%). In [2] (applied at 250 g/ha), the “POST Application ALOMY, percentage damage (five point scale)” value is given as 4 (4=60-79%). In [3] (applied at 250 g/ha), the “PRE Application SOLNI, percentage damage” value is listed as 5 (5=80-100%). Besides, the “POST Application SETFA, percentage damage (five point scale)” value in [4] (applied at 250 g/ha) is 4 (4=60-79%). For the same compound, the “PRE Application IPOHE, percentage damage” value in assay [5] (applied at 250 g/ha) is 4 (4=60-79%). Moreover, the “PRE Application AMARE, percentage damage” value in assay [6] (applied at 250 g/ha) was 5 (5=80-100%). In addition, the “POST Application IPOHE, percentage damage (five point scale)” value in assay [7] (applied at 250 g/ha) is reported as 5 (5=80-100%). The “PRE Application ALOMY, percentage damage” value in assay [8] (applied at 250 g/ha) is given as 4 (4=60-79%). In [9] (applied at 250 g/ha), the “POST Application ECHCG, percentage damage (five point scale)” value was 5 (5=80-100%). For the same compound, the “PRE Application ECHCG, percentage damage” value in assay [10] (applied at 250 g/ha) is on record as 5 (5=80-100%). In addition, the “PRE Application SETFA, percentage damage” value in [11] (applied at 250 g/ha) is on record as 4 (4=60-79%). Moreover, in assay [12] (applied at 250 g/ha), the “POST Application AMARE, percentage damage (five point scale)” value is recorded as 5 (5=80-100%).

In the case of `CCn1nnnc1NC(=O)c1cn(C)c(=O)n(-c2cccc(F)c2)c1=O` [Compound 4.003], the “POST Application SOLNI, percentage damage (five point scale)” value in [1] (applied at 1000 g/h) is on record as 5 (5=80-100%). The “POST Application ALOMY, percentage damage (five point scale)” value in [2] (applied at 1000 g/h) was 2 (2=20-39%). The “PRE Application SOLNI, percentage damage” value in assay [3] (applied at 1000 g/h) is given as 4 (4=60-79%). The “POST Application SETFA, percentage damage (five point scale)” value in [4] (applied at 1000 g/h) was 1 (1=0-19%). In addition, the “PRE Application IPOHE, percentage damage” value in [5] (applied at 1000 g/h) is on record as 3 (3=40-59%). Further, the “PRE Application AMARE, percentage damage” value in assay [6] (applied at 1000 g/h) was 5 (5=80-100%). Further, the “POST Application IPOHE, percentage damage (five point scale)” value in assay [7] (applied at 1000 g/h) is reported as 2 (2=20-39%). The “PRE Application ALOMY, percentage damage” value in [8] (applied at 1000 g/h) is recorded as 2 (2=20-39%). The “POST Application ECHCG, percentage damage (five point scale)” value in assay [9] (applied at 1000 g/h) is 1 (1=0-19%). Also, the “PRE Application ECHCG, percentage damage” value in [10] (applied at 1000 g/h) is listed as 1 (1=0-19%). The “PRE Application SETFA, percentage damage” value in assay [11] (applied at 1000 g/h) is given as 1 (1=0-19%). The “POST Application AMARE, percentage damage (five point scale)” value in [12] (applied at 1000 g/h) is on record as 5 (5=80-100%).
